Results reported in patent publication US20260265244A1, “HETEROCYCLIC COMPOUNDS AS STING ANTAGONISTS” (Boehringer Ingelheim International GmbH, priority 2022, published 2026).

Molecular target: T1, cGAMP binding domain of wild-type (GRR) human STING, residues 155-341 (Homo sapiens, UniProt Q86WV6, H232R)
T1 construct: His-TEV-hSTING (WT); TEV protease cleavage site (N); made in house; host or cells: E. coli BL21 DE3
Assay: Increase of stability of STING protein against thermal denaturation, Differential Scanning Fluorimetry (DSF)
Experimental: Dye fluorescence is quenched in aqueous environment and increases upon association of the dye with the hydrophobic parts of the unfolding protein. […] The inflection point of the curve represents the “melting” temperature of the protein (Tm) which is calculated numerically using the Boltzmann equation.
Method: The thermal stability of the STING protein was measured using a specific expression construct of the cGAMP binding domain of wild-type (GRR) human STING comprising residues 155-341 and a N-terminal 8×His-tag (SEQ ID NO: 3) in assay buffer containing 20 mM Tris, 150 mM NaCl at pH7.5.
The assay uses Hard-Shell® PCR Plates 384-Well CLR/WHT (Catalog #HSP3805, BIO-RAD), Microseal® ‘B’ Adhesive Seals for PCR Plates (Catalog #MSB-1001, BIO-RAD) and was run on a CFX384 Real-Time System (Bio-Rad).
A DMSO stock solution of SYPRO orange (SIGMA S5692-500UL) was prepared.
Compound stock solutions (10 mM in DMSO) were diluted 1:2 in DMSO to an intermediate compound concentration of 5 mM and then further diluted 1:40 in assay buffer resulting in a compound concentration of 125 μM and 2.5% DMSO.
Fluorescent dye stock solution (5000×SYPRO Orange) was then mixed with target protein and buffer to a concentration of 15 uM Protein and 25×SYPRO Orange. 2 ul of this protein-dye-mixture was added to 8 ul compound solution. Final volume was 10 uL. 3-6 well positions were used as negative control (protein with 2% DMSO). The plates were prepared for duplicate measurement and centrifuged for 2 min at 1000 g. In the measurement, 160 cycles of 0.5° C. were used (temperature ramp 15 s/cycle, 15° C. to 95° C.).
Final Assay concentrations for compound characterization were as follows: 100 uM compound, 3 uM target protein, 5×SYPRO Orange, 2% DMSO in 10 ul. All dispensing steps were performed using a HamiltonStar pipetting robot (Hamilton).
Dissociation curves were processed in Bio-Rad CFX Manager. Peak type was set to “negative”. Compound codes for screen were assigned in the plate layout.
Two replicates of TM measurements were averaged, and the standard deviation was calculated. In cases of SD>1.5° C. the measurement was repeated.
The melting point (Tm) obtained for STING protein alone was subtracted from T obtained for protein incubated with ligand to generate ΔTm values.
Protein production and purification: The protein used for the biophysical experiments was a recombinant human STING protein comprising its cytosolic ectodomain. A codon optimized DNA sequence (for expression in Escherichia coli) encoding amino acid residues 155 to 341 (Swiss Prot Q86WV6) of human STING (WT) was synthesized by GeneArt (Regensburg, Germany) and inserted into a pET17b E. coli expression vector. The protein construct encodes an N-terminal 8×His-tag (SEQ ID NO: 3) followed by tobacco etch virus protease (TEV) cleavage site and the above STING gene sequence. The resulting protein sequence for the used STING variant is listed below:
For expression of recombinant human STING above construct was transformed into E. coli BL21 DE3 strain and grown in shake flasks in LB-medium at 37° C. Expression was induced by addition of isopropyl β-D-1-thiogalactopyranoside to a final concentration of 1 mM and cultures shaken overnight. Cell pellets were centrifuged and stored at −70° C. until further use. Protein was purified by cell thawing in lysis buffer (20 mM TRIS-HCl, pH 8, 300 mM NaCl, 2 mM mercaptoethanol, 20 mM imidazole, Complete Protease Inhibitor (Roche) and DNase (Roche)), followed by metal affinity purification using Ni-NTA resins and elution buffer consisting of 20 mM TRIS-HCl, pH 8, 300 mM NaCl, 2 mM mercaptoethanol, 300 mM imidazole and size exclusion chromatography in running buffer (20 mM TRIS-HCl, pH 8, 100 mM NaCl, 2 mM DTT). The peak fraction was collected and concentrated to 2.5 mg/mL.

T1 sequence (Q86WV6 with tags, fused parts or gaps H232R): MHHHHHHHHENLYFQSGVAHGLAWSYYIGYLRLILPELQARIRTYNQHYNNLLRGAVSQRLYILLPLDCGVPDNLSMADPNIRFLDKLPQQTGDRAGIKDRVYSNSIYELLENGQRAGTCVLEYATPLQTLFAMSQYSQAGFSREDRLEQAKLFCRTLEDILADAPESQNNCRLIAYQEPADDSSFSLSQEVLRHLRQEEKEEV

DSF [K] | Structure (SMILES)
25 | Cc1c(C(C)C)c(-c2cccc3nn(C[C@H](O)c4ccccc4)cc23)nn1-c1cc2cn(C)nc2nc1OC(C)C [Example 23, (1R)-2-(4-{5-methyl-1-[2-methyl-6-(propan-2-yloxy)-2H-pyrazolo[3,4-b]pyridin-5-yl]-4-(propan-2-yl)-1H-pyrazol-3-yl}-2H-indazol-2-yl)-1-phenylethan-1-ol]
30 | Cc1nc2nn(Cc3cnn(C)c3)cc2cc1-n1nc(-c2cccc3nn(C[C@H](O)c4ccccc4)cc23)c(C(C)C)c1C [Example 24, (1R)-2-[4-(5-methyl-1-{6-methyl-2-[(1-methyl-1H-pyrazol-4-yl)methyl]-2H-pyrazolo[3,4-b]pyridin-5-yl}-4-(propan-2-yl)-1H-pyrazol-3-yl)-2H-indazol-2-yl]-1-phenylethan-1-ol]
30 | Cc1ccc([C@@H](O)Cn2cc3c(-c4nc(-c5cc6cn(C)nc6nc5C(C)C)n(C)c4C4CC4)cccc3n2)cc1 [Example 25, (1R)-2-(4-{5-cyclopropyl-1-methyl-2-[2-methyl-6-(propan-2-yl)-2H-pyrazolo[3,4-b]pyridin-5-yl]-1H-imidazol-4-yl}-2H-indazol-2-yl)-1-(4-methylphenyl)ethan-1-ol]
26 | Cc1c(C(C)C)c(-c2cccc3nn(C[C@H](O)c4ccccc4)cc23)nn1-c1cc2cn(C)nc2nc1CN1CCOCC1 [Example 26, (1R)-2-[4-(5-methyl-1-{2-methyl-6-[(morpholin-4-yl)methyl]-2H-pyrazolo[3,4-b]pyridin-5-yl}-4-(propan-2-yl)-1H-pyrazol-3-yl)-2H-indazol-2-yl]-1-phenylethan-1-ol]
25 | Cc1nc2nn(C)cc2cc1-n1nc(-c2cccc3nn(C[C@H](OCF)c4ccccc4)cc23)c(C(C)C)c1C [Example 27, 4-(1-{2,6-dimethyl-2H-pyrazolo[3,4-b]pyridin-5-yl}-5-methyl-4-(propan-2-yl)-1H-pyrazol-3-yl)-2-[(2R)-2-(fluoromethoxy)-2-phenylethyl]-2H-indazole]
31 | Cn1c(-c2cc3cn(CCCN4CCCC4=O)nc3nc2C2CC2)nc(-c2cccc3nn(C[C@H](O)c4ccccc4)cc23)c1C1CC1 [Example 28, 1-{3-[6-cyclopropyl-5-(5-cyclopropyl-4-{2-[(2R)-2-hydroxy-2-phenylethyl]-2H-indazol-4-yl}-1-methyl-1H-imidazol-2-yl)-2H-pyrazolo[3,4-b]pyridin-2-yl]propyl}pyrrolidin-2-one]
29 | Cc1c(C2CC2)c(-c2cccc3nn(C[C@H](O)c4ccccc4)cc23)nn1-c1cc2cn(C)nc2nc1C1CC1 [Example 29, (1R)-2-[4-(4-cyclopropyl-1-{6-cyclopropyl-2-methyl-2H-pyrazolo[3,4-b]pyridin-5-yl}-5-methyl-1H-pyrazol-3-yl)-2H-indazol-2-yl]-1-phenylethan-1-ol]
25 | CCO[C@@H](Cn1cc2c(-c3nn(-c4cc5cn(C)nc5nc4C)c(C)c3C(C)C)cccc2n1)c1ccccc1 [Example 30, 4-(1-{2,6-dimethyl-2H-pyrazolo[3,4-b]pyridin-5-yl}-5-methyl-4-(propan-2-yl)-1H-pyrazol-3-yl)-2-[(2R)-2-ethoxy-2-phenylethyl]-2H-indazole]
28 | Cc1nc2nn(CCCO)cc2cc1-n1nc(-c2cccc3nn(C[C@H](O)c4ccccc4)cc23)c(C(C)C)c1C [Example 32, 3-[5-(3-{2-[(2R)-2-hydroxy-2-phenylethyl]-2H-indazol-4-yl}-5-methyl-4-(propan-2-yl)-1H-pyrazol-1-yl)-6-methyl-2H-pyrazolo[3,4-b]pyridin-2-yl]propan-1-ol]
31 | CC(C)n1cc2cc(-c3nc(-c4cccc5nn(C[C@H](O)c6ccccc6)cc45)c(C4CC4)n3C)c(C3CC3)nc2n1 [Example 33, (1R)-2-(4-{5-cyclopropyl-2-[6-cyclopropyl-2-(propan-2-yl)-2H-pyrazolo[3,4-b]pyridin-5-yl]-1-methyl-1H-imidazol-4-yl}-2H-indazol-2-yl)-1-phenylethan-1-ol]
29 | Cn1cc2cc(-c3nc(-c4cccc5nn(C[C@H](O)c6ccccc6)cc45)c(C4CC4)n3C)c(OC(F)F)cc2n1 [Example 34, (1R)-2-(4-{5-cyclopropyl-2-[6-(difluoromethoxy)-2-methyl-2H-indazol-5-yl]-1-methyl-1H-imidazol-4-yl}-2H-indazol-2-yl)-1-phenylethan-1-ol]
29 | Cc1c(C2CC2)c(-c2c(F)ccc3nn(C[C@H](O)c4ccccc4)cc23)nn1-c1cc2cn(C)nc2nc1C1CC1 [Example 35, (1R)-2-[4-(4-cyclopropyl-1-{6-cyclopropyl-2-methyl-2H-pyrazolo[3,4-b]pyridin-5-yl}-5-methyl-1H-pyrazol-3-yl)-5-fluoro-2H-indazol-2-yl]-1-phenylethan-1-ol]
24 | CNC(=O)CO[C@@H](Cn1cc2c(-c3nn(-c4cc5cn(C)nc5nc4C)c(C)c3C(C)C)cccc2n1)c1ccccc1 [Example 36, 2-[(1R)-2-[4-(1-{2,6-dimethyl-2H-pyrazolo[3,4-b]pyridin-5-yl)-5-methyl-4-(propan-2-yl)-1H-pyrazol-3-yl)-2H-indazol-2-yl]-1-phenylethoxy]-N-methylacetamide]
27 | Cc1nc2nn(CCO)cc2cc1-n1nc(-c2cccc3nn(C[C@H](O)c4ccccc4)cc23)c(C(C)C)c1C [Example 37, (1R)-2-(4-{1-[2-(2-hydroxyethyl)-6-methyl-2H-pyrazolo[3,4-b]pyridin-5-yl]-5-methyl-4-(propan-2-yl)-1H-pyrazol-3-yl}-2H-indazol-2-yl)-1-phenylethan-1-ol]
25 | Cc1nc2nn(CCN(C)C)cc2cc1-n1nc(-c2cccc3nn(C[C@H](O)c4ccccc4)cc23)c(C(C)C)c1C [Example 39, (1R)-2-[4-(1-{2-[2-(dimethylamino)ethyl]-6-methyl-2H-pyrazolo[3,4-b]pyridin-5-yl}-5-methyl-4-(propan-2-yl)-1H-pyrazol-3-yl)-2H-indazol-2-yl]-1-phenylethan-1-ol]
27 | Cc1nc2nn(CCCN3CCC(F)(F)C3)cc2cc1-n1nc(-c2cccc3nn(C[C@H](O)c4ccccc4)cc23)c(C(C)C)c1C [Example 40, (1R)-2-[4-(1-{2-[3-(3,3-difluoropyrrolidin-1-yl)propyl]-6-methyl-2H-pyrazolo[3,4-b]pyridin-5-yl}-5-methyl-4-(propan-2-yl)-1H-pyrazol-3-yl)-2H-indazol-2-yl]-1-phenylethan-1-ol]
30 | Cn1cc2cc(-c3nc(-c4cccc5nn(C[C@H](O)c6ccc(OCCC(C)(C)O)cc6)cc45)c(C4CC4)n3C)c(C3CC3)nc2n1 [Example 41, 4-{4-[(1R)-2-[4-(5-cyclopropyl-2-{6-cyclopropyl-2-methyl-2H-pyrazolo[3,4-b]pyridin-5-yl}-1-methyl-1H-imidazol-4-yl)-2H-indazol-2-yl]-1-hydroxyethyl]phenoxy}-2-methylbutan-2-ol]
26 | CNCc1nc2nn(C)cc2cc1-n1nc(-c2cccc3nn(C[C@H](O)c4ccccc4)cc23)c(C(C)C)c1C [Example 42, (1R)-2-[4-(5-methyl-1-{2-methyl-6-[(methylamino)methyl]-2H-pyrazolo[3,4-b]pyridin-5-yl}-4-(propan-2-yl)-1H-pyrazol-3-yl)-2H-indazol-2-yl]-1-phenylethan-1-ol]
